# Source: paper PMC8710297, “Identification of potent SENP1 inhibitors that inactivate SENP1/JAK2/STAT signaling pathway and overcome platinum drug resistance in ovarian cancer” (Clinical and Translational Medicine, 2021)
# Molecular target: T1, SENP1 (Homo sapiens, UniProt Q9P0U3)
# T1 sequence (Q9P0U3 1-644): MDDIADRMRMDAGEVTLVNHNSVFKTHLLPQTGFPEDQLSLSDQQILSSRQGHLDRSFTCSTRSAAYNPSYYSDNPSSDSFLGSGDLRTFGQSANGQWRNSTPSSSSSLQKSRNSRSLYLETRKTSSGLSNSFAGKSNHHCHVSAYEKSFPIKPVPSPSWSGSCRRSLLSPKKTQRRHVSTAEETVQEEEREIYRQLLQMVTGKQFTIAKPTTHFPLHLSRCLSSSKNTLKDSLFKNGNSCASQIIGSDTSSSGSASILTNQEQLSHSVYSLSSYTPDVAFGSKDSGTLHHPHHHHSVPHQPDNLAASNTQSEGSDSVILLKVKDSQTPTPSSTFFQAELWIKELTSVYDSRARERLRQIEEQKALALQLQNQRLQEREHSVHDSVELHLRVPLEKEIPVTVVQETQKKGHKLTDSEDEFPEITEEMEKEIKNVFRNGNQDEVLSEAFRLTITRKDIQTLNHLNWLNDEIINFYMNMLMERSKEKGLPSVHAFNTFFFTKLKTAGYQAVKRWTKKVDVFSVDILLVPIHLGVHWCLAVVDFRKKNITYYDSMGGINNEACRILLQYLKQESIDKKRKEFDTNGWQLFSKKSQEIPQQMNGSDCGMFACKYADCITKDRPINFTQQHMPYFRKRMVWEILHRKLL
# Assay: In vitro (cell-free) thermal shift assay
# Type: binding
# Design: made in house
# Details: purified SENP1, 4 h, higher temperatures
# Procedure: FIGURE 2 UA directly interacts with Sentrin‐specific protease 1 (SENP1). (A) Cellular thermal shift assay to examine the interaction of UA with SENP1. IGROV1 CR cells pretreated with MG132 (10 μM, 1 h) were incubated with DMSO or UA for 4 h before being shifted to indicated temperatures. SENP1 stability was analyzed by using Western blot against SENP1 antibody. Right panel, quantification of non‐denatured SENP1 fraction shown in the left panel. (B) Cell‐free thermal shift assay to examine interactions of UA with SENP1. Purified SENP1 proteins were incubated with DMSO or UA for 4 h before being shifted to the indicated temperatures. SENP1 stability was analyzed by using Western blot against SENP1 antibody. Right panel, quantification of non‐denatured SENP1 fraction shown in the left panel. (C) The predicted docking pose of UA (C: green; H: white; O: red) at the hydrophobic catalytic cleft of SENP1 (C: salmon; H: white; O: red; N: blue). Key amino acid residues were highlighted. […] Stability of SENP1(C603A) was analyzed by using Western blot against SENP1 antibody. […] Left; Ultra‐high performance liquid‐chromatography‐MS/MS analyses of associated UA in indicated samples, right; quantification of data shown in left (the binding affinity of UA with SENP1‐C603A was normalized as 1). […]
# The qu anti ficatio n of immunohistochemical sta in ing wa s scored blindly at lea st by two independent obser vers. […]
compound,measurement,value
"C[C@H]1[C@H](C)CC[C@]2(C(=O)O)CC[C@]3(C)C(=CC[C@@H]4[C@@]5(C)CC[C@H](O)C(C)(C)[C@@H]5CC[C@]43C)[C@H]12 [UA, ursolic acid, reference compound]",thermal stabilization of recombinant SENP1 in vitro,stabilized
